In the test the target is Serine/threonine-protein kinase B-raf [V600E] (Homo sapiens, UniProt P15056, V600E). In words: Raf/Mek Amplified Luminescence Proximity Homogeneous Assay. As to conditions: pH 7.5. The text has this:
Raf/Mek amplified luminescence proximity homogeneous assay.

Serine/threonine-protein kinase B-raf [V600E], sequence (P15056 2-766 V600E limits assumed): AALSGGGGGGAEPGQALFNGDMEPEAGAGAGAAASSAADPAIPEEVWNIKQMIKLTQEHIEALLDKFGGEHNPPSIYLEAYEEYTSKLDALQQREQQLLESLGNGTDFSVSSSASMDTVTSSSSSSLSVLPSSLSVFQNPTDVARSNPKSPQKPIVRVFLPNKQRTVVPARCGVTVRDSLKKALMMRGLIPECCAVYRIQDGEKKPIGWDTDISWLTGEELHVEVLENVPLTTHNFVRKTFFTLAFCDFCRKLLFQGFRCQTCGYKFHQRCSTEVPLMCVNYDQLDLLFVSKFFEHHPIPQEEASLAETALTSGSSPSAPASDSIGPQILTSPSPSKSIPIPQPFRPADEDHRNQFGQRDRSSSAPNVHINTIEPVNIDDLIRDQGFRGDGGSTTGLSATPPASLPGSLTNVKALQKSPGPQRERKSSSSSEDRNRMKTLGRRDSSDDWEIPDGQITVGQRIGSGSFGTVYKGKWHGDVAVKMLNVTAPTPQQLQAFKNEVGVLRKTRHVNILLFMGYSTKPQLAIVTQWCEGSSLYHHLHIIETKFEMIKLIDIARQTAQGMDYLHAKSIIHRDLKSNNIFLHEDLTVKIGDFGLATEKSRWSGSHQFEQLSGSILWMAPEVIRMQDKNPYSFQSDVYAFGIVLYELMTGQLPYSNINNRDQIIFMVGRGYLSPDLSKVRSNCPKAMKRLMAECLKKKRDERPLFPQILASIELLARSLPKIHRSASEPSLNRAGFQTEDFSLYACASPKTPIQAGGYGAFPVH

Take `COC(=O)N[C@@H](C)CNc1nccc(-c2nc(C(C)(C)C)[nH]c2-c2cc(Cl)cc(NS(=O)(=O)C(F)(F)F)c2)n1` [US8563553, 52]: the midpoint of inhibition, the IC50, lay at 235 nM.

These data come from BindingDB's records for patent US8563553 (Novartis, 2013).
